Laboratory results: US20230381069A1, “TOPICAL COMPOSITIONS AND METHODS OF USING THEREOF” (OHIO STATE INNOVATION FOUNDATION, priority 2016, published 2023)

Test: Photolysis of thin films in petroleum jelly on quartz plates under a UV photolysis lamp
Type: physicochemical
Experimental: A UV photolysis lamp having a light flux of 320 mW equipped with a cutoff filter at 270-280 nm was used to evaluate the performance and stability of the sunscreen compositions prepared herein. With 3 min of exposure to the UV lamp (same position as sample, after the filter), a clear damage was observed on human skin. Typically, under hot sun, this sunburn process takes 30 min to an hour. Accordingly, the photolysis lamp used for analysis is considerably more intense than natural sunlight.
FIGS. 4A and 4B compare the stability of avobenzone dispersed in petroleum jelly with avobenzone encapsulated in encapsulated in zeolite nanoparticles (10% zeolite, 1% AB) dispersed in petroleum jelly.
FIG. 7 is a plot showing the long-term stability of avobenzone/nanozeolite formulations. The absorption spectra of a thin film of avobenzone encapsulated in zeolite nanoparticles (10% zeolite, 1% AB) dispersed in petroleum jelly on quartz plates was obtained following 0, 3, 5, and 12 hours of irradiation using a UV photolysis lamp.

With COc1ccc(C(=O)CC(=O)c2ccc(C(C)(C)C)cc2)cc1 [avobenzone] the “AB decomposition in the presence of 1% OMC (octinoxate)” value (petroleum jelly, photolysis for 4 hours, FIGS. 8A/8B) was “AB decomposition was observed after the first hour of photolysis” and the “degradation of avobenzone via UV spectroscopy (long-term stability)” value (thin film in petroleum jelly, 0, 3, 5 and 12 hours of irradiation, FIG. 7) was “complete degradation of the avobenzone was observed within four hours”.
